Reference: PubChem BioAssay (NCI)
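Tested at 5 concentrations; 48 h exposure; 96-well plates; endpoints linearly interpolated, else capped at highest concentration. GI50 = concentration required for 50% inhibition of growth. TGI marks complete inhibition of growth.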

Experiments:
Assay in all cases: NCI-60 cell line screen, 48 h
HL-60(TB) leukemia = system: HL-60(TB) leukemia
CAKI-1 renal = system: CAKI-1 renal
ACHN renal = system: ACHN renal
NCI-H460 lung = system: NCI-H460 lung
SK-OV-3 ovarian = system: SK-OV-3 ovarian
UACC-257 melanoma = system: UACC-257 melanoma
PC-3 prostate = system: PC-3 prostate
NCI-H226 lung = system: NCI-H226 lung
MDA-MB-231 breast = system: MDA-MB-231 breast
HOP-92 NSCLC = system: HOP-92 NSCLC
786-0 renal = system: 786-0 renal
IGROV1 ovarian = system: IGROV1 ovarian
OVCAR-3 ovarian = system: OVCAR-3 ovarian
MCF7 breast = system: MCF7 breast
COLO 205 colon = system: COLO 205 colon
RPMI-8226 leukemia = system: RPMI-8226 leukemia
RXF 393 renal = system: RXF 393 renal
M14 melanoma = system: M14 melanoma
SNB-19 CNS = system: SNB-19 CNS
A498 renal = system: A498 renal
SF-268 CNS = system: SF-268 CNS
TK-10 renal = system: TK-10 renal
BT-549 breast = system: BT-549 breast
OVCAR-5 ovarian = system: OVCAR-5 ovarian
HS 578T breast = system: HS 578T breast
SW-620 colon = system: SW-620 colon
SF-539 CNS = system: SF-539 CNS
UACC-62 melanoma = system: UACC-62 melanoma
NCI-H23 lung = system: NCI-H23 lung
LOX IMVI melanoma = system: LOX IMVI melanoma
HCT-116 colon = system: HCT-116 colon
KM12 colon = system: KM12 colon
MDA-MB-435 = system: MDA-MB-435
UO-31 renal = system: UO-31 renal
SK-MEL-2 melanoma = system: SK-MEL-2 melanoma
HOP-62 NSCLC = system: HOP-62 NSCLC
EKVX NSCLC = system: EKVX NSCLC
A549 NSCLC = system: A549 NSCLC
SF-295 CNS = system: SF-295 CNS
OVCAR-8 ovarian = system: OVCAR-8 ovarian
T-47D breast = system: T-47D breast
HCT-15 colon = system: HCT-15 colon
MOLT-4 leukemia = system: MOLT-4 leukemia
SK-MEL-5 melanoma = system: SK-MEL-5 melanoma
U251 CNS = system: U251 CNS
NCI/ADR-RES ovarian = system: NCI/ADR-RES ovarian
CCRF-CEM leukemia = system: CCRF-CEM leukemia
NCI-H522 lung = system: NCI-H522 lung
DU-145 prostate = system: DU-145 prostate
SN12C renal = system: SN12C renal
MALME-3M melanoma = system: MALME-3M melanoma

SMILES: O=C(c1ccccc1)c1nc2ccc(C(F)(F)F)cc2nc1N1CCN(c2ccccc2)CC1
- GI50 (HL-60(TB) leukemia): 30.9 µM
- TGI (HL-60(TB) leukemia): > 100 µM
- GI50 (CAKI-1 renal): 26.2 µM
- TGI (CAKI-1 renal): 74.7 µM
- GI50 (ACHN renal): 21.6 µM
- TGI (ACHN renal): 53.7 µM
- GI50 (NCI-H460 lung): 52.1 µM
- TGI (NCI-H460 lung): > 100 µM
- GI50 (SK-OV-3 ovarian): > 100 µM
- TGI (SK-OV-3 ovarian): > 100 µM
- GI50 (UACC-257 melanoma): 94.9 µM
- TGI (UACC-257 melanoma): > 100 µM
- GI50 (PC-3 prostate): 47.1 µM
- TGI (PC-3 prostate): > 100 µM
- GI50 (NCI-H226 lung): 18.2 µM
- TGI (NCI-H226 lung): 46.9 µM
- GI50 (MDA-MB-231 breast): 23.4 µM
- TGI (MDA-MB-231 breast): 63.9 µM
- GI50 (HOP-92 NSCLC): 49.3 µM
- TGI (HOP-92 NSCLC): > 100 µM
- GI50 (786-0 renal): 30.7 µM
- TGI (786-0 renal): 76.1 µM
- GI50 (IGROV1 ovarian): 43.9 µM
- TGI (IGROV1 ovarian): > 100 µM
- GI50 (OVCAR-3 ovarian): 19.3 µM
- TGI (OVCAR-3 ovarian): 39.5 µM
- GI50 (MCF7 breast): 48.2 µM
- TGI (MCF7 breast): > 100 µM
- GI50 (COLO 205 colon): 18.9 µM
- TGI (COLO 205 colon): 51.9 µM
- GI50 (RPMI-8226 leukemia): 23.3 µM
- TGI (RPMI-8226 leukemia): > 100 µM
- GI50 (RXF 393 renal): 35.5 µM
- TGI (RXF 393 renal): > 100 µM
- GI50 (M14 melanoma): 23.2 µM
- TGI (M14 melanoma): 55.3 µM
- GI50 (SNB-19 CNS): 71.5 µM
- TGI (SNB-19 CNS): > 100 µM
- GI50 (A498 renal): 27.9 µM
- TGI (A498 renal): 68.6 µM
- GI50 (SF-268 CNS): 48 µM
- TGI (SF-268 CNS): > 100 µM
- GI50 (TK-10 renal): 30.7 µM
- TGI (TK-10 renal): 74.7 µM
- GI50 (BT-549 breast): 32 µM
- TGI (BT-549 breast): 84.5 µM
- GI50 (OVCAR-5 ovarian): 70.5 µM
- TGI (OVCAR-5 ovarian): > 100 µM
- GI50 (HS 578T breast): 65 µM
- TGI (HS 578T breast): > 100 µM
- GI50 (SW-620 colon): 34.7 µM
- TGI (SW-620 colon): > 100 µM
- GI50 (SF-539 CNS): 52.9 µM
- TGI (SF-539 CNS): > 100 µM
- GI50 (UACC-62 melanoma): 18.5 µM
- TGI (UACC-62 melanoma): 43.2 µM
- GI50 (NCI-H23 lung): 25.7 µM
- TGI (NCI-H23 lung): 69.5 µM
- GI50 (LOX IMVI melanoma): 18.5 µM
- TGI (LOX IMVI melanoma): 38.4 µM
- GI50 (HCT-116 colon): 24.7 µM
- TGI (HCT-116 colon): 53.7 µM
- GI50 (KM12 colon): 95.1 µM
- TGI (KM12 colon): > 100 µM
- GI50 (MDA-MB-435): 35.6 µM
- TGI (MDA-MB-435): > 100 µM
- GI50 (UO-31 renal): 31.7 µM
- TGI (UO-31 renal): > 100 µM
- GI50 (SK-MEL-2 melanoma): 48 µM
- TGI (SK-MEL-2 melanoma): > 100 µM
- GI50 (HOP-62 NSCLC): 60.9 µM
- TGI (HOP-62 NSCLC): > 100 µM
- GI50 (EKVX NSCLC): 79.3 µM
- TGI (EKVX NSCLC): > 100 µM
- GI50 (A549 NSCLC): > 100 µM
- TGI (A549 NSCLC): > 100 µM
- GI50 (SF-295 CNS): 42.8 µM
- TGI (SF-295 CNS): > 100 µM
- GI50 (OVCAR-8 ovarian): 41.8 µM
- TGI (OVCAR-8 ovarian): > 100 µM
- GI50 (T-47D breast): 21.8 µM
- TGI (T-47D breast): 48.9 µM
- GI50 (HCT-15 colon): 20.5 µM
- TGI (HCT-15 colon): 50.1 µM
- GI50 (MOLT-4 leukemia): 24.6 µM
- TGI (MOLT-4 leukemia): > 100 µM
- GI50 (SK-MEL-5 melanoma): 15.9 µM
- TGI (SK-MEL-5 melanoma): 32.7 µM
- GI50 (U251 CNS): 60.9 µM
- TGI (U251 CNS): > 100 µM
- GI50 (NCI/ADR-RES ovarian): 34.2 µM
- TGI (NCI/ADR-RES ovarian): > 100 µM
- GI50 (CCRF-CEM leukemia): 21 µM
- TGI (CCRF-CEM leukemia): > 100 µM
- GI50 (NCI-H522 lung): 34.6 µM
- TGI (NCI-H522 lung): 91.3 µM
- GI50 (DU-145 prostate): 57.6 µM
- TGI (DU-145 prostate): > 100 µM
- GI50 (SN12C renal): 36.2 µM
- TGI (SN12C renal): > 100 µM
- GI50 (MALME-3M melanoma): 48.2 µM
- TGI (MALME-3M melanoma): > 100 µM
